These are literature values, as cited in paper PMC3918245 (ChemMedChem, 2013).

The series concerns deep-pocket MMPs. The following applies: semi-selective inhibition; specific inhibitors of MMP-8 and MMP-12.

Consider `O=C(NCc1ccc(-c2ccccc2)cc1)c1cccc(=O)n1O` [1,2-HOPO-2], for which the “IC50 against deep-pocket MMPs” value is reported as “low nanomolar range”.
